In patent publication EP0428132A1, “Pradimicin derivatives” (Bristol-Myers Squibb Company, priority 1989, dated 1991):
≈ marks a conversion by molar mass, not a printed value. Where “and” joins values, the source holds several entries; their conditions need not be identical. Identical values can stand only once.

Columns and labels:
[1] = tested on: Fusarium moniliforme A2284; assay: In vitro antifungal activity, serial agar dilution method (Table 1); format: cell-based; conditions: Fusarium verticillioides, A2284; Sabouraud dextrose agar (pH 7.0); 28°C for 40 hours
Method: (§1) The inoculum size was adjusted to 10⁶ cells/ml, and a volume of approximately 0.003 ml of fungal suspension was applied to the surface of the antibiotic containing agar plates with a multiinoculator. After incubation, the lowest concentration of antibiotic causing virtually complete inhibition of fungal growth was determined as the minimum inhibitory concentration (MIC). Table 1. [table]

[2] = tested on: Mucor spinosus IFO5317; assay: as above; format: cell-based; conditions: Sabouraud dextrose agar (pH 7.0), 28°C for 40 hours
Method: as §1

[3] = tested on: Blastomyces dermatidis D40; assay: as above; format: cell-based; conditions: Blastomyces, D40; Sabouraud dextrose agar (pH 7.0); 28°C for 40 hours; read-out: MIC, Blastomyces dermatidis D40
Method: as §1

[4] = tested on: Cryptococcus neoformans A15053; assay: In vitro antifungal activity, serial agar dilution method (Table 1a); format: cell-based; conditions: A15053, YM agar (pH 7.0, Difco), 30°C for 2 days (yeast) or 4 days (filamentous fungi), read-out: MICs, Cryptococcus neoformans A15053
Method: as §1, with “(MIC).” for “(MIC). Table 1. [table]”

[5] = tested on: Candida albicans A9540; assay: as above; format: cell-based; conditions: A9540, YM agar (pH 7.0, Difco), 30°C for 2 days (yeast) or 4 days (filamentous fungi), read-out: MICs, Candida albicans A9540
Method: as §1, with “(MIC).” for “(MIC). Table 1. [table]”

[6] = tested on: Microsporum canis WW10218; assay: as above; format: cell-based; conditions: WW10218, YM agar (pH 7.0, Difco), 30°C for 2 days (yeast) or 4 days (filamentous fungi), read-out: MICs, Microsporum canis WW10218
Method: as §1, with “(MIC).” for “(MIC). Table 1. [table]”

[7] = tested on: Saccharomyces cerevisiae A25803; assay: as above; format: cell-based; conditions: YM agar (pH 7.0, Difco), 30°C for 2 days (yeast) or 4 days (filamentous fungi), read-out: MICs, Saccharomyces cerevisiae A25803
Method: as §1, with “(MIC).” for “(MIC). Table 1. [table]”

[8] = tested on: Candida tropicalis A25809; assay: as above; format: cell-based; conditions: YM agar (pH 7.0, Difco), 30°C for 2 days (yeast) or 4 days (filamentous fungi), read-out: MICs, Candida tropicalis A25809
Method: as §1, with “(MIC).” for “(MIC). Table 1. [table]”

[9] = tested on: Candida pseudotropicalis A25802; assay: as above; format: cell-based; conditions: Kluyveromyces marxianus, YM agar (pH 7.0, Difco), 30°C for 2 days (yeast) or 4 days (filamentous fungi), read-out: MICs, Candida pseudotropicalis A25802
Method: as §1, with “(MIC).” for “(MIC). Table 1. [table]”

[10] = tested on: Microsporum gypseum WW1107; assay: as above; format: cell-based; conditions: Nannizzia gypsea, YM agar (pH 7.0, Difco), 30°C for 2 days (yeast) or 4 days (filamentous fungi), read-out: MICs, Microsporum gypseum WW1107
Method: as §1, with “(MIC).” for “(MIC). Table 1. [table]”

[11] = tested on: Candida paratropicalis A25825; assay: as above; format: cell-based; conditions: YM agar (pH 7.0, Difco); 30°C for 2 days (yeast) or 4 days (filamentous fungi); read-out: MICs, Candida paratropicalis A25825
Method: as §1, with “(MIC).” for “(MIC). Table 1. [table]”

[12] = tested on: Candida albicans A25578; assay: as above; format: cell-based; conditions: A25578, YM agar (pH 7.0, Difco), 30°C for 2 days (yeast) or 4 days (filamentous fungi), read-out: MICs, Candida albicans A25578
Method: as §1, with “(MIC).” for “(MIC). Table 1. [table]”

[13] = tested on: Trichophyton rubrum A26761; assay: as above; format: cell-based; conditions: A26761, YM agar (pH 7.0, Difco), 30°C for 2 days (yeast) or 4 days (filamentous fungi), read-out: MICs, Trichophyton rubrum A26761
Method: as §1, with “(MIC).” for “(MIC). Table 1. [table]”

[14] = tested on: Candida tropicalis A25812; assay: as above; format: cell-based; conditions: A25812, YM agar (pH 7.0, Difco), 30°C for 2 days (yeast) or 4 days (filamentous fungi), read-out: MICs, Candida tropicalis A25812
Method: as §1, with “(MIC).” for “(MIC). Table 1. [table]”

[15] = tested on: Trichophyton mentagrophytes A26771; assay: as above; format: cell-based; conditions: A26771, YM agar (pH 7.0, Difco), 30°C for 2 days (yeast) or 4 days (filamentous fungi), read-out: MICs, Trichophyton mentagrophytes A26771
Method: as §1, with “(MIC).” for “(MIC). Table 1. [table]”

[16] = tested on: Candida albicans A9540; assay: Intravenous Candida albicans infection mouse model, Table 2 part A; format: in vivo; conditions: drug administered once just after infection, 20 days after fungal challenge, method of Litchfield and Wilcoxon, male ICR mice
Method: (§2) Several compounds were also evaluated in an intravenous Candida albicans […] infection mouse model. The test organism was suspended in saline approximately 10 times the median lethal dose of the fungus (10⁶ cells/mouse) were used to infect intravenously male ICR mice weighing 20 to 24 g. Groups of five mice at each dose level were given the test compounds intravenously or intramuscularly. The 50% protective dose (PD₅₀) was calculated from survival rates recorded 20 or 21 days after the fungal challenge. Control animals died between 7 to 15 days.

[17] = physchem
Method: The sample (3 ∼ 3.5 mg) was suspended in 1 ml of PBS(-) or PBS(+), sonicated at 30°C for 10 minutes, and allowed to stand at room temperature for 2 hours. The resulting solution or suspension was centrifuged at 12,000 rpm for 10 minutes. The supernatant (pH 6.7 ∼ 7.2) was diluted (5 x or 50 x) with 0.01N NaOH (pH ca. 11.5) and its UV absorption at 500 nm was measured. The solubility was assessed by the absorption coefficient value with reference to the standard. […] The zwitterionic form sample was used for the solubility test as it is. The hydrochloride salt sample (3 mg) was dissolved in 3 ml of distilled water and neutralized with 0.01N NaOH, and then the solution was lyophilized to give a test sample.
Dulbecco's phosphate buffered saline (PBS) solution was used. Preparation of PBS(-) solution: One PBS(-) tablet (Flow Laboratories, Cat. No. 28-103-05) was dissolved in 100 ml distilled water, and the solution was autoclaved for 10 minutes at 115°C. This solution contains 0.2 g/L of KCl, 0.2 g/L of KH₂PO₄, 8 g/L of NaCl, and 1.15 g/L of Na₂HPO₄. Preparation of PBS(+) solution: One PBS(-) tablet was dissolved in 80 ml distilled water; 10 mg of CaCl₂ was dissolved in 10 ml distilled water; 10 mg of MgCl₂, 6H₂O was dissolved in 10 ml distilled water. These solutions were separately autoclaved, as described above, and mixed when cooled.

[18] = tested on: Candida albicans A9540; assay: Intravenous Candida albicans infection mouse model, Table 2 part B; format: in vivo, mice; conditions: at 1 and 3.5 hrs after infection and twice on the following day, 21 days after fungal challenge, method of Spearman-Karber, male ICR mice
Method: as §2, with “Control animals died between 7 to 15 days.” left out

[19] = Water solubility, protocol I (PBS, HPLC); format: physicochemical; conditions: Method I: PBS without CaCl₂ and MgCl₂.6H₂O
Method: The supernatant (2 µL) was analyzed by HPLC using the conditions specified for each compound in the Experimental Section. […] When not soluble, an additional amount of PBS (x µL) was added, sonicated, and centrifuged. When visibly soluble, the solution (2 µL) was injected to HPLC and the peak area was used for the known concentration of the sample.

[20] = tested on: FA21436; assay: In vitro antifungal activity, serial agar dilution method (Table 1); format: cell-based, Asoergukkys flavus; conditions: Sabouraud dextrose agar (pH 7.0); 28°C for 40 hours; read-out: MIC, Asoergukkys flavus FA21436
Method: as §1

SMILES: CN[C@@H]1[C@H](O[C@@H]2OC[C@@H](O)[C@H](O)[C@H]2O)[C@@H](O)[C@H](O[C@H]2c3cc(C)c(C(=O)N[C@H](C)C(=O)O)c(O)c3-c3c(cc4c(c3O)C(=O)c3cc(OC)cc(O)c3C4=O)[C@@H]2O)O[C@@H]1C [Pradimicin A, reference compound]
- MIC [1]: 3.1 µg/mL (≈ 3.69 µM)
- MIC ([2]; Mucor spinosus, IFO5317): > 100 µg/mL
- Partial Inhibition, Mucor spinosus IFO5317 ([2]; value in parentheses = Partial Inhibition): 12.5 µg/mL
- MIC [3]: 3.1 µg/mL (≈ 3.69 µM)
- MIC [4]: 0.4 µg/mL (≈ 0.476 µM)
- MIC [5]: > 50 µg/mL
- MIC [6]: 1.6 µg/mL (≈ 1.9 µM)
- MIC [7]: 0.8 µg/mL (≈ 0.951 µM)
- MIC [8]: 1.6 µg/mL (≈ 1.9 µM)
- MIC [9]: 3.2 µg/mL (≈ 3.81 µM)
- MIC [10]: 12.5 µg/mL (≈ 14.9 µM)
- MIC [11]: > 50 µg/mL
- MIC [12]: 3.2 µg/mL (≈ 3.81 µM)
- MIC [13]: 6.3 µg/mL (≈ 7.49 µM)
- MIC [14]: > 50 µg/mL
- MIC [15]: 6.3 µg/mL (≈ 7.49 µM)
- PD₅₀ [16]: 11 mg/kg and 7.9 mg/kg
- solubility at 2 h ([17]; Method II (+): PBS(+)): 81 µg/mL (≈ 96.3 µM)
- solubility at 2 h ([17]; Method II (-): PBS(-)): 17 µg/mL (≈ 20.2 µM)
- PD₅₀ ([18]; Part B: route IM): 8.2 mg/kg
- PD₅₀ ([18]; Part B: route IV): 30 mg/kg
- solubility [19]: 17 µg/mL (≈ 20.2 µM)
- MIC [20]: 6.3 µg/mL (≈ 7.49 µM)
